One test addresses T1, Growth factor receptor-bound protein 2 (Homo sapiens, UniProt P62993). Kind of test: Steady-state affinity constant for Grb2 SH2 domain binding by surface plasmon resonance. In general terms: Surface plasmon resonance follows binding to a sensor surface in real time, without labels.
Target sequence in this assay (P62993 whole entry, looked up, the tested form may be a part): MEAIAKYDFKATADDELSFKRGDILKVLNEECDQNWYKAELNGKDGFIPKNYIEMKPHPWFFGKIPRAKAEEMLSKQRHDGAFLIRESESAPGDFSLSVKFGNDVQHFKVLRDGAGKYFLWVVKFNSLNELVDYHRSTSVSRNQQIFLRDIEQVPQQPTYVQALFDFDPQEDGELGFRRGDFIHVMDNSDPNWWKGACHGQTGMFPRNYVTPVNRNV
As to `NC(=O)C[C@H](NC(=O)C1(NC(=O)[C@H](Cc2ccc(C(O)C(=O)O)cc2)NC(=O)C(=O)O)CCCCC1)C(=O)NCCCc1cccc2ccccc12` (stereo partly specified), the Keq turned out to be 1.54 µM.
Still for that read-out and setting: the same measure for `NC(=O)C[C@H](NC(=O)C1(NC(=O)[C@H](Cc2ccc(C(C(=O)O)C(=O)O)cc2)NC(=O)C(=O)O)CCCCC1)C(=O)NCCCc1cccc2ccccc12`: 0.149 µM; for `CC(=O)N[C@@H](Cc1ccc(OP(=O)(O)O)cc1)C(=O)NC1(C(=O)N[C@@H](CC(N)=O)C(=O)NCCCc2cccc3ccccc23)CCCCC1`: 0.24 µM; for `NC(=O)C[C@H](NC(=O)C1(NC(=O)[C@H](Cc2ccc(C(O)(C(=O)O)C(=O)O)cc2)NC(=O)C(=O)O)CCCCC1)C(=O)NCCCc1cccc2ccccc12`: 0.27 µM.
Same read-out and setting: the same measure for `NC(=O)C[C@H](NC(=O)C1(NC(=O)[C@H](Cc2ccc(CC(=O)O)cc2)NC(=O)C(=O)O)CCCCC1)C(=O)NCCCc1cccc2ccccc12`: 6.11 µM.

A further test addresses T1, Growth factor receptor-bound protein 2. In words: Inhibition of Grb2 SH2 domain binding in ELISA. (An ELISA detects its analyte on a solid surface through an enzyme-linked reagent.)
Target sequence in this assay (P62993 whole entry, the tested form may be a part): as the sequence (P62993 whole entry, looked up, the tested form may be a part) above
By IC50 is commonly meant the midpoint of a concentration-inhibition curve. A high value points to a need for much substance. Molecule `CC(=O)N[C@@H](Cc1ccc(OP(=O)(O)O)cc1)C(=O)NC1(C(=O)N[C@@H](CC(N)=O)C(=O)NCCCc2cccc3ccccc23)CCCCC1` gave an IC50 of 0.047 µM.

Values taken from ChEMBL document CHEMBL1145167, “Design and synthesis of 4-(alpha-hydroxymalonyl)phenylalanine as a new phosphotyrosyl mimetic and its use in growth factor receptor bound 2 src-homology 2 (Grb2 SH2) domain-binding peptides” (J Med Chem, 2005).
